Reference: ChEMBL document CHEMBL1125122, “Antibacterials. Synthesis and structure-activity studies of 3-aryl-2-oxooxazolidines. 2. The "A" group” (1990)
≈ marks a conversion by molar mass, not a printed value.

Assays:
Enterococcus faecalis = assay: In vitro for antibacterial activity against Enterococcus faecalis strain STCO-19; type: functional
Staphylococcus aureus = assay: In vitro for antibacterial activity against Staphylococcus aureus strain SFCO-1a; type: functional

| SMILES | MIC (Enterococcus faecalis) [µg/mL] | MIC (Staphylococcus aureus) [µg/mL] |
| --- | --- | --- |
| CCN(CC)c1ccc(N2C[C@H](CNC(C)=O)OC2=O)cc1 | 16 (≈ 52.4 µM) | 8 (≈ 26.2 µM) |
| CC(=O)NC[C@H]1CN(c2ccc([S@+](C)[O-])cc2)C(=O)O1 | 16 (≈ 54 µM) | 8 (≈ 27 µM) |
| CC(=O)NC[C@H]1CN(c2ccc(Br)cc2)C(=O)O1 | 8 (≈ 25.5 µM) | 16 (≈ 51.1 µM) |
| CC(=O)NCC1CN(c2ccc(CO)cc2)C(=O)O1 (racemic) | 16 (≈ 60.5 µM) | 32 (≈ 121 µM) |
| CCSc1ccc(N2C[C@H](CNC(C)=O)OC2=O)cc1 | 2 (≈ 6.79 µM) | 1 (≈ 3.4 µM) |
| CC(=O)NC[C@H]1CN(c2ccc(C(=O)C(C)C)cc2)C(=O)O1 | 1 (≈ 3.29 µM) | 1 (≈ 3.29 µM) |
| CC(=O)NC[C@H]1CN(c2ccc(C(=O)COC(C)=O)cc2)C(=O)O1 | 2 (≈ 5.98 µM) | 0.5 (≈ 1.5 µM) |
| CCCCc1ccc(N2CC(CNC(C)=O)OC2=O)cc1 (racemic) | 4 (≈ 13.8 µM) | 4 (≈ 13.8 µM) |
| CC(=O)NC[C@H]1CN(c2ccc(S(=O)(=O)C(F)(F)F)cc2)C(=O)O1 | 2 (≈ 5.46 µM) | 2 (≈ 5.46 µM) |
| CCC/C(=N/O)c1ccc(N2C[C@H](CNC(C)=O)OC2=O)cc1 | 4 (≈ 12.5 µM) | 4 (≈ 12.5 µM) |
| CC(=O)NC[C@H]1CN(c2ccc(S(C)(=O)=O)cc2)C(=O)O1 | 4 (≈ 12.8 µM) | 4 (≈ 12.8 µM) |
| CC(=O)NCC1CN(c2ccc(C(C)C)cc2)C(=O)O1 (racemic) | 4 (≈ 14.5 µM) | 4 (≈ 14.5 µM) |
| C=Cc1ccc(N2C[C@H](CNC(C)=O)OC2=O)cc1 | 8 (≈ 30.7 µM) | 4 (≈ 15.4 µM) |
| CC(=O)NC[C@H]1CN(c2ccc(/C=N\O)cc2)C(=O)O1 | 16 (≈ 57.7 µM) | 16 (≈ 57.7 µM) |
| CCC[S+]([O-])c1ccc(N2C[C@H](CNC(C)=O)OC2=O)cc1 (some centres not stated) | 64 (≈ 197 µM) | 32 (≈ 98.6 µM) |
| CC[S+]([O-])c1ccc(N2CC(CNC(C)=O)OC2=O)cc1 (single isomer, unassigned) | 16 (≈ 51.6 µM) | 16 (≈ 51.6 µM) |

| SMILES | MIC (Enterococcus faecalis) [µg/mL] | MIC (Staphylococcus aureus) [µg/mL] |
| --- | --- | --- |
| CC(=O)NC[C@H]1CN(c2ccc(I)cc2)C(=O)O1 | 8 (≈ 22.2 µM) | 8 (≈ 22.2 µM) |
| COC(=O)c1ccc(N2C[C@H](CNC(C)=O)OC2=O)cc1 | 2 (≈ 6.84 µM) | 2 (≈ 6.84 µM) |
| CC(=O)NCC1CN(c2ccc(C#N)cc2)C(=O)O1 (racemic) | 16 (≈ 61.7 µM) | 16 (≈ 61.7 µM) |
| CC(=O)NC[C@@H]1CN(c2ccc(S(C)=O)cc2)C(=O)O1 (some centres not stated) | 4 (≈ 13.5 µM) | 4 (≈ 13.5 µM) |
| CC(=O)NCC1CN(c2ccc(F)cc2)C(=O)O1 (racemic) | > 64 | > 64 |
| CC(=O)NC[C@H]1CN(c2ccc([S+](C)[O-])cc2)C(=O)O1 (some centres not stated) | 4 (≈ 13.5 µM) | 4 (≈ 13.5 µM) |
| CCC(=O)c1ccc(N2C[C@H](CNC(C)=O)OC2=O)cc1 | 0.5 (≈ 1.72 µM) | 1 (≈ 3.44 µM) |
| CCc1ccc(N2C[C@H](CNC(C)=O)OC2=O)cc1 | 8 (≈ 30.5 µM) | 4 (≈ 15.2 µM) |
| CCCC(=O)c1ccc(N2C[C@H](CNC(C)=O)OC2=O)cc1 | 0.25 (≈ 0.821 µM) | 0.25 (≈ 0.821 µM) |
| CCC(O)c1ccc(N2C[C@H](CNC(C)=O)OC2=O)cc1 (some centres not stated) | 64 (≈ 219 µM) | 32 (≈ 109 µM) |
| CC(=O)NC[C@H]1CN(c2ccc(C(F)(F)F)cc2)C(=O)O1 | 8 (≈ 26.5 µM) | 8 (≈ 26.5 µM) |
| CCCC(O)c1ccc(N2C[C@H](CNC(C)=O)OC2=O)cc1 (some centres not stated) | 32 (≈ 104 µM) | 16 (≈ 52.2 µM) |
| CC(=O)NC[C@H]1CN(c2ccc([N+](=O)[O-])cc2)C(=O)O1 | 2 (≈ 7.16 µM) | 2 (≈ 7.16 µM) |
| COc1ccc(N2CC(CNC(C)=O)OC2=O)cc1 (racemic) | 32 (≈ 121 µM) | 32 (≈ 121 µM) |
| CC(=O)NC[C@H]1CN(c2ccc([S+]([O-])C(F)(F)F)cc2)C(=O)O1 (some centres not stated) | 2 (≈ 5.71 µM) | 2 (≈ 5.71 µM) |
